Key:
Type in all cases: physicochemical
[1] = Analysis of active substance: preservative concentration before and after storage in VI-containing polymer solution; conditions: for active-substance concentration, 0 d, RT: before storage; for active-substance concentration, 14 d, 40° C.: storage 14 d at 40° C.; for active-substance concentration, 28 d, 40° C.: storage 28 d at 40° C.; for active-substance concentration, 60 d 40° C.: storage 60 d at 40° C.
Protocol: Stability of Preservatives in VI-Containing Polymers:
The following stabilizers for VI-containing polymers (here: aqueous solution of a copolymer of vinylpyrrolidone and vinylimidazole) were tested.
MIT, BIT, CMIT, OIT, DCOIT and iodopropynyl butyl carbamate were determined by RP chromatography with UV detection after dilution of the sample to be tested. An RP18 column was used for this purpose, with an eluent composed of an acid-methanol mixture under isocratic conditions.

[2] = Iodine color number according to DIN 6162:2014-09
[3] = Physical stability; visual assessment (color, turbidity, phase separation); parameters: key: ++: no discernible change with respect to color, turbidity or phase separation; +: marginal change in color number, somewhat increased Tyndall effect but no turbidity; 0: easily discernible increase in color number and moderate turbidity−no phase separation; −: turbidity and change in color number readily discernible by visual assessment; −−: strong color change with strong turbidity and incipient phase separation
Source text: Physical stability; visual assessment according to:
++=no discernible change with respect to color, turbidity or phase separation; +=marginal change in color number, somewhat increased Tyndall effect but no turbidity; 0=easily discernible increase in color number and moderate turbidity−no phase separation; − turbidity and change in color number readily discernible by visual assessment; −− strong color change with strong turbidity and incipient phase separation.
Before storage, all batches could be rated ++ (no turbidity or phase separation; no influence of the biocide on the color number of the product).

[4] = Polymer P5 (HP56) with stabilizer

Q: For `CCCCCCCCCC[N+](C)(C)CCCCCCCCCC.[Cl-]` [DDAC, didecyldimethylammonium chloride], which “active-substance concentration, 0 d, RT” value ([1]; in Polymer P1) is on record?
A: Its value is 950 ppm.

Q: What about the “active-substance concentration, 14 d, 40° C.” value ([1]; in Polymer P1) of the same compound?
A: The value was 950 ppm.

Q: And the “active-substance concentration, 28 d, 40° C.” value ([1]; in Polymer P1)?
A: Its value is 940 ppm.

Q: And the “active-substance concentration, 60 d 40° C.” value ([1]; in Polymer P1)?
A: The value was 940 ppm.

Q: And the “active-substance concentration, 0 d, RT” value ([1]; in Polymer P2)?
A: Its value is 950 ppm.

Q: And the “active-substance concentration, 14 d, 40° C.” value ([1]; in Polymer P2)?
A: The value was 950 ppm.

Q: What about the “active-substance concentration, 28 d, 40° C.” value ([1]; in Polymer P2) of the same compound?
A: Its value is 940 ppm.

Q: What about the “active-substance concentration, 60 d 40° C.” value ([1]; in Polymer P2) of the same compound?
A: The value was 940 ppm.

Q: And the “active-substance concentration, 0 d, RT” value ([1]; in Polymer P3)?
A: The value was 950 ppm.

Q: And the “active-substance concentration, 14 d, 40° C.” value ([1]; in Polymer P3)?
A: The value was 950 ppm.

Q: And the “active-substance concentration, 28 d, 40° C.” value ([1]; in Polymer P3)?
A: Its value is 940 ppm.

Q: And the “active-substance concentration, 60 d 40° C.” value ([1]; in Polymer P3)?
A: The value was 930 ppm.

Q: And the “active-substance concentration, 0 d, RT” value ([1]; in Polymer P4)?
A: The value was 950 ppm.

Q: What about the “active-substance concentration, 14 d, 40° C.” value ([1]; in Polymer P4) of the same compound?
A: The value was 950 ppm.

Q: And the “active-substance concentration, 28 d, 40° C.” value ([1]; in Polymer P4)?
A: Its value is 942 ppm.

Q: What about the “active-substance concentration, 60 d 40° C.” value ([1]; in Polymer P4) of the same compound?
A: Its value is 940 ppm.

Q: What about the “active-substance concentration, 0 d, RT” value ([1]; in Polymer P5 (HP56)) of the same compound?
A: Its value is 950 ppm.

Q: And the “active-substance concentration, 14 d, 40° C.” value ([1]; in Polymer P5 (HP56))?
A: Its value is 950 ppm.

Q: What about the “active-substance concentration, 28 d, 40° C.” value ([1]; in Polymer P5 (HP56)) of the same compound?
A: The value was 940 ppm.

Q: What about the “active-substance concentration, 60 d 40° C.” value ([1]; in Polymer P5 (HP56)) of the same compound?
A: Its value is 940 ppm.

Q: And the “active-substance concentration, 0 d, RT” value ([1]; in Polymer P6)?
A: Its value is 950 ppm.

Q: And the “active-substance concentration, 14 d, 40° C.” value ([1]; in Polymer P6)?
A: Its value is 950 ppm.

Q: What about the “active-substance concentration, 28 d, 40° C.” value ([1]; in Polymer P6) of the same compound?
A: The value was 950 ppm.

Q: And the “active-substance concentration, 60 d 40° C.” value ([1]; in Polymer P6)?
A: Its value is 943 ppm.

Q: And the “active-substance concentration, 0 d, RT” value ([1]; in Polymer P7)?
A: The value was 950 ppm.

Q: And the “active-substance concentration, 14 d, 40° C.” value ([1]; in Polymer P7)?
A: Its value is 947 ppm.

Q: What about the “active-substance concentration, 28 d, 40° C.” value ([1]; in Polymer P7) of the same compound?
A: Its value is 945 ppm.

Q: What about the “active-substance concentration, 60 d 40° C.” value ([1]; in Polymer P7) of the same compound?
A: Its value is 938 ppm.

Q: And the “active-substance concentration, 0 d, RT” value ([1]; in Polymer P8)?
A: The value was 950 ppm.

Q: And the “active-substance concentration, 14 d, 40° C.” value ([1]; in Polymer P8)?
A: Its value is 950 ppm.

Q: And the “active-substance concentration, 28 d, 40° C.” value ([1]; in Polymer P8)?
A: The value was 940 ppm.

Q: What about the “active-substance concentration, 60 d 40° C.” value ([1]; in Polymer P8) of the same compound?
A: Its value is 940 ppm.

Q: What about the “active-substance concentration, 0 d, RT” value ([1]; in Polymer P9) of the same compound?
A: Its value is 950 ppm.

Q: And the “active-substance concentration, 14 d, 40° C.” value ([1]; in Polymer P9)?
A: Its value is 950 ppm.

Q: What about the “active-substance concentration, 28 d, 40° C.” value ([1]; in Polymer P9) of the same compound?
A: Its value is 944 ppm.

Q: And the “active-substance concentration, 60 d 40° C.” value ([1]; in Polymer P9)?
A: Its value is 940 ppm.

Q: What about the “Iodine color number, 60 d 40° C.” value ([2]; Polymer P1 with stabilizer) of the same compound?
A: The value was 2.9.

Q: And the “Iodine color number, start” value ([2]; Polymer P1 with stabilizer)?
A: Its value is 2.9.

Q: What about the “Iodine color number, 60 d 40° C.” value ([2]; Polymer P2 with stabilizer) of the same compound?
A: Its value is 3.0.

Q: And the “Iodine color number, start” value ([2]; Polymer P2 with stabilizer)?
A: The value was 2.9.

Q: And the “Iodine color number, 60 d 40° C.” value ([2]; Polymer P3 with stabilizer)?
A: The value was 3.3.

Q: What about the “Iodine color number, start” value ([2]; Polymer P3 with stabilizer) of the same compound?
A: Its value is 3.3.

Q: And the “Iodine color number, 60 d 40° C.” value ([2]; Polymer P4 with stabilizer)?
A: The value was 3.3.

Q: And the “Iodine color number, start” value ([2]; Polymer P4 with stabilizer)?
A: The value was 3.3.

Q: And the “Iodine color number, 60 d 40° C.” value [2, 4]?
A: Its value is 3.3.

Q: What about the “Iodine color number, start” value [2, 4] of the same compound?
A: The value was 3.3.

Q: And the “Iodine color number, 60 d 40° C.” value ([2]; Polymer P6 with stabilizer)?
A: Its value is 3.3.

Q: And the “Iodine color number, start” value ([2]; Polymer P6 with stabilizer)?
A: Its value is 3.3.

Q: What about the “Iodine color number, 60 d 40° C.” value ([2]; Polymer P7 with stabilizer) of the same compound?
A: Its value is 3.3.

Q: And the “Iodine color number, start” value ([2]; Polymer P7 with stabilizer)?
A: Its value is 3.3.

Q: What about the “Iodine color number, 60 d 40° C.” value ([2]; Polymer P8 with stabilizer) of the same compound?
A: Its value is 3.3.

Q: What about the “Iodine color number, start” value ([2]; Polymer P8 with stabilizer) of the same compound?
A: The value was 3.3.

Q: And the “Iodine color number, 60 d 40° C.” value ([2]; Polymer P9 with stabilizer)?
A: The value was 3.9.

Q: What about the “Iodine color number, start” value ([2]; Polymer P9 with stabilizer) of the same compound?
A: The value was 3.8.

Q: What about the “Physical stability, 60 d 40° C.*” value ([3]; Polymer P1 with stabilizer) of the same compound?
A: The value was “++”.

Q: What about the “Physical stability, 60 d 40° C.*” value ([3]; Polymer P2 with stabilizer) of the same compound?
A: The value was “++”.

Q: And the “Physical stability, 60 d 40° C.*” value ([3]; Polymer P3 with stabilizer)?
A: Its value is “++”.

Q: And the “Physical stability, 60 d 40° C.*” value ([3]; Polymer P4 with stabilizer)?
A: Its value is “++”.

Q: And the “Physical stability, 60 d 40° C.*” value [3, 4]?
A: Its value is “++”.

Q: What about the “Physical stability, 60 d 40° C.*” value ([3]; Polymer P6 with stabilizer) of the same compound?
A: Its value is “++”.

Q: And the “Physical stability, 60 d 40° C.*” value ([3]; Polymer P7 with stabilizer)?
A: Its value is “++”.

Q: What about the “Physical stability, 60 d 40° C.*” value ([3]; Polymer P8 with stabilizer) of the same compound?
A: The value was “++”.

Q: What about the “Physical stability, 60 d 40° C.*” value ([3]; Polymer P9 with stabilizer) of the same compound?
A: Its value is “++”.

Reference: patent US12281225B2, “Process for preparing stable polymers containing vinylimidazole” (BASF SE, priority 2018, dated 2025)
